The target in assay [1] is T1, LGR4 (Homo sapiens, UniProt Q9BXB1).
T1 construct: purchased Promega (in-house HiBiT-GPCR construct library, NanoBRET)
T1 sequence (Q9BXB1 25-951): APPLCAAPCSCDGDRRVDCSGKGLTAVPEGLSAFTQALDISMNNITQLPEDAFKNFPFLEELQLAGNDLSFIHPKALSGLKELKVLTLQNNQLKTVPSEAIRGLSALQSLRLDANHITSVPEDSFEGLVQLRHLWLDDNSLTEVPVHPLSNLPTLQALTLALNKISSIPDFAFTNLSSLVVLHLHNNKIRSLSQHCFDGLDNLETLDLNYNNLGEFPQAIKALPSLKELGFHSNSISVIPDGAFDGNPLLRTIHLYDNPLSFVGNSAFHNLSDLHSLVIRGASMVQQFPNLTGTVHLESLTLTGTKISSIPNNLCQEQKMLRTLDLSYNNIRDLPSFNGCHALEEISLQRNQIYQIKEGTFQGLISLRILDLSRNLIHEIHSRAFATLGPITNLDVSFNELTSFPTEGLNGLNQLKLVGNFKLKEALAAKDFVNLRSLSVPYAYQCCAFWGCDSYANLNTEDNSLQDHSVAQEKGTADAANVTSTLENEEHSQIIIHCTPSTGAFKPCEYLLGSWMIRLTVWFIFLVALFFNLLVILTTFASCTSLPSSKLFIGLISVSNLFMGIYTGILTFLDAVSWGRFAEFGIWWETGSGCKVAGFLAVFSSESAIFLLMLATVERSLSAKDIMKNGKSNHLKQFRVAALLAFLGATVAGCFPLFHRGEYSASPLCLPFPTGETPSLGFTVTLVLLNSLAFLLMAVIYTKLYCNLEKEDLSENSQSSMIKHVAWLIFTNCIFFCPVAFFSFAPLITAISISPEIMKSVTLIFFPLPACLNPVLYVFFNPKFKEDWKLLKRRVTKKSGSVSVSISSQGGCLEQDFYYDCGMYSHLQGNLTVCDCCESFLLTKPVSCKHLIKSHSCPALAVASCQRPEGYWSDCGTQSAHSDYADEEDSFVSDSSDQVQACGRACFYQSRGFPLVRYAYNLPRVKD
The experiment in a line: NanoBRET screen HiBiT-LGR4 in HEK293. In kind it is binding. How it is done:
(§1) Each tracer candidate was screened across the entire library of HiBiT-GPCR constructs using NanoBRET as the detection modality. As depicted in Figure 4A, the specificity of interactions was evaluated through decrease in BRET due to competitive displacement of a bound tracer by excess parental compound. Each tracer was analyzed for binding to each HiBiT-GPCR fusion in the absence and in the presence of competing parental compound. Briefly, HEK293 cells were transfected with HiBiT-GPCR constructs diluted into promoterless DNA to reduce expression and maximize translocation to the cell surface. Each tracer candidate was then screened at concentrations of 1 μM and 0.1 μM across cells expressing these fusions. Cells were treated for 1.5 h with tracer either alone or in the presence of 20 μM competing parental compound (i.e., control). BRET was measured upon addition of purified LgBiT and subsequent complementation with HiBiT genetically fused to a GPCR. The specificity of interactions was assessed through a decrease in BRET signal due to competitive displacement of the bound tracer. To further gauge the robustness of these interactions, the fold response over the control (i.e., BRETtracer/BRETcontrol) was calculated. We chose a 1.5-fold response, which translates to ≥7-fold signal over noise as the minimal threshold required to score an interaction as positive. […]. Below we highlight the screening results obtained for our exemplary fluorescent tracers based on Clozapine, Amitriptyline and AZD1283.
(§2) HiBiT-GPCR DNA constructs were diluted in 10 mM Tris pH 8 to a final concentration of 0.01 μg/μL, arrayed in 96-well plates and stored at −20 °C. For transfection, HEK293 cells were suspended in Opti-MEM (without phenol red) supplemented with 2% fetal bovine serum (Seradigm) and 100 units/mL penicillin–streptomycin (Gibco) at a final concentration of 220,000 cells/mL and dispensed into white 96-well plates at 90 μL/well. Subsequent transfections and screens were carried using an Agilent Bravo Automated Liquid Handling Platform. First, the 96-well HiBiT DNA arrays were diluted 25-fold in Opti-MEM (without serum or phenol red) to a final concentration of 0.0004 μg/μL and 20 μL of the diluted DNAs were transferred into new 96-well plates. Next, promoterless carrier DNA (1 μg/μL) was diluted 25-fold (0.04 μg/μL) and then dispensed into the diluted arrays at 20 μL/well. Following brief mixing, Viafect transfection reagent (Promega) diluted 16-fold into Opti-MEM was dispensed into the plates at 40 μL/well. After mixing by pipetting, plates were incubated for 10 min on the pipetting station deck. The DNA-transfection reagent complexes were then added to plates containing cells. To facilitate the screen, 10 μL of DNA-transfection reagent complexes were added in duplicates to the top 4 and bottom 4 rows, resulting in two identical 48-well arrays per plate. Plates with transfected cells were incubated for 18–20 h at 37 °C/5% CO2. A screen of each tracer across the entire library using two different concentrations requires duplicate plates of transfected cells. Depending on the number of tracers being screened, transfections can be scaled up using the same ratios. The next day, for each tracer, four 20× screening solutions in tracer dilution buffer (Promega) were prepared: two duplicates at final concentration of 20 μM and two duplicates at a final concentration of 2 μM. A competing unmodified compound was added to one of each duplicate at a final concentration of 400 μM. The four resulting solutions were diluted 4-fold in Opti-MEM without serum or phenol red to generate 5× solutions (5 µM and 0.5 µM tracer +/− 100 μM competing compound). To screen the library, a BioTek MultiFlo FX liquid dispenser was used to dispense 22.5 µL of tracer solution to the top 4 rows and 22.5 µL tracer + competing compound solution to the 4 bottom rows. Plates were briefly mixed on an orbital shaker and incubated for 1.5 h at room temperature. […]

Assay [2] addresses T2, PTGER1 (Homo sapiens, UniProt P34995).
T2 construct: purchased Promega (in-house HiBiT-GPCR construct library, NanoBRET)
T2 sequence (P34995 1-402): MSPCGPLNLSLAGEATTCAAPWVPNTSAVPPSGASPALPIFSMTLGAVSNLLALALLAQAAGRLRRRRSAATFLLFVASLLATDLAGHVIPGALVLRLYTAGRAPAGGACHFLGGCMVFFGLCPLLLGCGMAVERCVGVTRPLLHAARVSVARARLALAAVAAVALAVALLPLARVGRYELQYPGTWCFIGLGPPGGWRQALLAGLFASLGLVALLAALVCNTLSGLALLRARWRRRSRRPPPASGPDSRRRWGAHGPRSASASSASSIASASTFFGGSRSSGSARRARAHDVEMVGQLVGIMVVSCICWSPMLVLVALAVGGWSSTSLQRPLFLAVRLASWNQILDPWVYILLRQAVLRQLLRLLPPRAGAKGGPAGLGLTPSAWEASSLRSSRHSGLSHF
In words: NanoBRET screen HiBiT-PTGER1 in HEK293. In kind it is binding. The procedure: as §1, §2

Six molecules from PMC8151276, “An Integrated Approach toward NanoBRET Tracers for Analysis of GPCR Ligand Engagement” (Molecules, 2021) can be followed below.

Consider `O=C(CCc1ccc2n1[B-](F)(F)[N+]1=C(c3ccc[nH]3)C=CC1=C2)NCCOCCOCCNC(=O)OCCOCCN1CCN(C2=Nc3ccccc3Sc3ccccc32)CC1` [Quetiapine-a-2-NB590], for which the “NanoBRET Fold Response” value in assay [1] (LGR4, tracer 0.1μM) is 1.00; in assay [1] (LGR4, tracer 1μM), 1.05; in assay [2] (PTGER1, tracer 0.1μM), 1.07; in assay [2] (PTGER1, tracer 1μM), 1.05.
Turning to `Cc1cc2c(s1)Nc1ccccc1N=C2N1CCN(CCCNC(=O)CCOCCOCCOCCOCCNC(=O)CCc2ccc3n2[B-](F)(F)[N+]2=C(c4ccc[nH]4)C=CC2=C3)CC1` [Olanzapine-a-2-NB590], the “NanoBRET Fold Response” value in assay [1] (LGR4, tracer 0.1μM) is on record as 0.98; in assay [1] (LGR4, tracer 1μM) it was 1.30; in assay [2] (PTGER1, tracer 0.1μM), 1.03; in assay [2] (PTGER1, tracer 1μM), 1.04.
Regarding `CN(C)CCC=C1c2ccccc2CCc2ccc(C(=O)NCCNC(=O)CCOCCOCCOCCOCCNC(=O)CCc3ccc4n3[B-](F)(F)[N+]3=C(c5ccc[nH]5)C=CC3=C4)cc21` [Amitriptyline-b-2-NB590], the “NanoBRET Fold Response” value in assay [1] (tracer at 0.1μM) is reported as 1.00; in assay [1] (tracer at 1μM), 0.98; in assay [2] (tracer at 0.1μM), 1.07; in assay [2] (tracer at 1μM), 1.01.
In the case of `O=C(CCOCCOCCOCCOCCNC(=O)CCc1ccc2n1[B-](F)(F)[N+]1=C(c3ccc[nH]3)C=CC1=C2)NCCCN1CCN(C2=Nc3cc(Cl)ccc3Nc3ccccc32)CC1` [Clozapine-a-2-NB590], the “NanoBRET Fold Response” value in assay [1] (LGR4, 0.1μM tracer) turned out to be 1.02; in assay [1] (LGR4, 1μM tracer), 0.99; in assay [2] (PTGER1, 0.1μM tracer) it was 1.03; in assay [2] (PTGER1, 1μM tracer), 1.02.
Take `CN1CCN(C2=Nc3cc(Cl)ccc3Nc3ccc(CNC(=O)CCOCCOCCOCCOCCNC(=O)CCc4ccc5n4[B-](F)(F)[N+]4=C(c6ccc[nH]6)C=CC4=C5)cc32)CC1` [Clozapine-b-2-NB590]: the “NanoBRET Fold Response” value in assay [1] (LGR4, 0.1μM tracer) was 1.00; in assay [1] (LGR4, 1μM tracer), 1.04; in assay [2] (PTGER1, 0.1μM tracer), 1.01; in assay [2] (PTGER1, 1μM tracer), 0.97.
As to `Cc1nc2n(c(=O)c1CCN1CCC(c3noc4cc(F)ccc34)CC1)CCCC2OC(=O)NCCOCCOCCOCCOCCNC(=O)CCc1ccc2n1[B-](F)(F)[N+]1=C(c3ccc[nH]3)C=CC1=C2` (stereo not drawn) [Risperidone-2-NB590], the “NanoBRET Fold Response” value in assay [1] (LGR4, tracer 0.1μM) was determined as 0.93; in assay [1] (LGR4, tracer 1μM), 0.98; in assay [2] (PTGER1, tracer 0.1μM) it was 1.04; in assay [2] (PTGER1, tracer 1μM), 1.07.
